# Compound: CC1(COc2ccc3c(c2)ncn3-c2ccc3cccc(N4CCC(N)CC4)c3n2)COC1 [Crenolanib] + Cc1nc(Nc2ncc(C(=O)Nc3c(C)cccc3Cl)s2)cc(N2CCN(CCO)CC2)n1 [Dasatinib] (partner 0.075 µM)
# Assay: relative viability (nuclei count vs DMSO), 5 days (fraction); higher = more cells survive
# Details: first compound 1 µM
# Summary of the method: (§1)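 Lung cancer cell lines in 1536-well plates got either a single drug or a fixed anchor-drug dose together with five library-drug doses (not always all listed) in √10 steps, by pin tool, on the day after seeding. Nuclei were counted after 5 days, and relative viability is the treated-to-vehicle ratio of nuclei counts. Values are medians of duplicate plates.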
row,Cell Line,relative viability
1,NCI-H1793,0.418
2,PC-3 [JPC-3],1.06
3,EKVX,0.512
4,LCLC-103H,0.428
5,NCI-H1650,0.32
6,NCI-H1944,0.168
7,NCI-H1993,0.429
8,SK-LU-1,0.172
9,ABC-1,0.564
10,NCI-H358,0.168

# Compound: CC1(COc2ccc3c(c2)ncn3-c2ccc3cccc(N4CCC(N)CC4)c3n2)COC1 [Crenolanib] + O=C(CCCCCCC(=O)Nc1ccccc1)NO [Vorinostat] (partner 1 µM)
# Assay: as above
# Details: first compound 0.01 µM
# Summary of the method: as §1
row,Cell Line,relative viability
1,NCI-H441,0.98
2,LOU-NH91,0.996
3,NCI-H2023,0.705
4,A-427,0.848
5,NCI-H460,0.743
6,NCI-H727,1.35
7,NCI-H1755,0.739
8,NCI-H520,0.703
9,NCI-H2405,1.03
10,SW 1573,0.961
11,NCI-H1395,0.766
12,201T,0.985
13,NCI-H1975,0.729
14,HOP-62,0.653
15,NCI-H2347,0.629
16,NCI-H1355,0.661
17,NCI-H650,0.408

row,Cell Line,relative viability
1,CAL-12T,0.781
2,NCI-H1666,1.1
3,H3255,0.811
4,NCI-H23,0.722
5,NCI-H1915,0.529
6,NCI-H1437,0.843
7,NCI-H322M,0.872
8,NCI-H1793,0.8
9,PC-3 [JPC-3],0.75
10,EKVX,0.928
11,LCLC-103H,0.752
12,NCI-H1650,0.454
13,NCI-H1944,0.586
14,NCI-H1993,0.956
15,SK-LU-1,0.735
16,ABC-1,0.991
17,NCI-H358,0.784

# Same assay, conditions: first compound 0.03162 µM
row,Cell Line,relative viability
1,NCI-H441,0.705
2,LOU-NH91,0.913
3,NCI-H2023,0.531
4,NCI-H460,0.701
5,NCI-H727,1.31
6,NCI-H1755,0.941
7,NCI-H520,0.641
8,SW 1573,0.624
9,NCI-H1395,0.601
10,201T,1
11,NCI-H1975,0.684
12,HOP-62,0.542
13,NCI-H2347,0.807
14,NCI-H1355,0.674
15,NCI-H650,0.42
16,CAL-12T,0.67

row,Cell Line,relative viability
1,NCI-H1666,1.01
2,H3255,0.744
3,NCI-H23,0.565
4,NCI-H1915,0.516
5,NCI-H1437,0.868
6,NCI-H322M,0.789
7,NCI-H2085,0.764
8,NCI-H1793,0.741
9,EKVX,0.752
10,LCLC-103H,0.791
11,NCI-H1650,0.516
12,NCI-H1944,0.591
13,NCI-H1993,0.728
14,SK-LU-1,0.863
15,ABC-1,0.679
16,NCI-H358,0.71

# Same assay, conditions: first compound 0.1 µM
row,Cell Line,relative viability
1,NCI-H441,0.657
2,LOU-NH91,0.878
3,NCI-H2023,0.617
4,A-427,0.848
5,NCI-H460,0.688

# — the supplement of paper PMC10307832
